# In patent US6160017A, “Preventives and remedies for ulcerous colitis and/or crohn's disease” (Zaidan Hojin Biseibutsu Kagaku Kenkyu Kai, priority 1997, dated 2000):
# Columns and labels:
# rats = experiment: 3-month repeated administration toxicity test on rats; type: in vivo, rat (male Wister); details: 3 months
# Description: Conagenin (100 mg/kg) was intraperitoneally administered repeatedly for 3 months to male Wister rats (aged 6 weeks; 3 rats per group) to evaluate its toxicity using a group dosed with physiological saline as a control. Tests were made for general symptoms, urinalysis, blood test, blood biochemical test, autopsy, organ weight and pathological test.
# The judgment of the test items was conducted in accordance with "Guideline of Toxicity Testing Methods".
# [1] = Single administration (acute) toxicity test on rats; type: in vivo; details: in vivo, rat
# Description: (§1) Conagenin (500 mg/kg) was singly administered intravenously, intraperitoneally, subcutaneously or orally to mice and rats to investigate its toxicity.
# Rat = experiment: as above; type: in vivo
# Description: as §1
# [2] = Single administration toxicity test on mice; type: in vivo, mouse; details: in vivo; mouse, intravenous
# Description: as §1
# Mouse = experiment: Single administration toxicity test on mice; type: in vivo
# Description: as §1
# [3] = tested on: acetic acid-induced rat ulcer models; experiment: Effect on acetic acid-induced rat ulcer model; type: in vivo, rat (male Donryu:CRJ); details: 50 mg/kg i.v.
# Description: Morbid models were prepared by starving male Donryu:CRJ rats (aged 6 weeks; 9 rats per group) for 24 hours, incising each of their abdomens under etherization to ligate its colon, injecting a 10% aqueous solution (2 ml) of acetic acid into the digestive tract lumen thereof by means of a syringe equipped with a 25 G needle, further injecting air (3 ml) to discharge the acetic acid solution, and then suturing and closing the operated part. Conagenin was intravenously administered to the rats in a dose of 50 mg/kg 24 hours before the preparation of the models and right after the operation. After 24 hours, the rat models were slaughtered to take out their colons and recta. These organs were incised by 10 cm above from the anus to remove their contents. Thereafter, the weight of the organs was measured, and moreover the degree of mucosal disorder was visually observed. The degree of the tissue damage was evaluated using the grades "light", "medium" and "serious".
# [4] = tested on: trinitrobenzenesulfonic acid (TNBS)-induced rat colitis models; experiment: Effect on trinitrobenzenesulfonic acid (TNBS)-induced rat colitis model; type: in vivo, rat (male Wister); details: for Wet weight of large intestine: conagenin 50 mg/kg i.v., salazosulfapyridine 300 mg/kg p.o., daily, untreated 1.571 ± 0.161, saline 1.723 ± 0.167; for Stage of lesion: number of rats that reached a subacute stage: saline group 4 rats; for Depth of invasion of the ulcer (lamina propria mucosae and submucosal tissue): saline group medium; for Percent change in wet weight against untreated group: untreated 100, TNBS and saline 110
# Description: Morbid models were prepared by starving male Wister rats (aged 6 weeks; 7 rats per group) for 48 hours, inserting a catheter by 8 cm through the anus of each of the rats under anesthesia with pentobarbital to inject a solution (0.25 ml) with 2,4,6-trinitrobenzenesulfonic acid dissolved in 50% ethanol in a proportion of 80 mg/ml, stopping the anus for about 10 minutes and then allowing it to stand.
# Conagenin was intravenously administered to the rats in a dose of 50 mg/kg. Salazosulfapyridine was orally administered as a control agent in a dose of 300 mg/kg. The administration of these test agents was carried out every day from the day before the administration of 2,4,6-trinitrobenzenesulfonic acid to the fourth day after the administration. The rat models were slaughtered at the fifth day after the administration to determine a change in the wet weight of their recta (8 cm) and make a judgment on the basis of the pathological findings thereof.
# patients = details: double blind test; cited from earlier work
# [5] = 100 mg/kg i.p., compared with saline control
# [6] = 24 h before and right after operation, 9 rats per group
# [7] = pathological findings of colon, 7 rats per group
smiles,measurement,setting,value
"C[C@@H]([C@@H](C)O)[C@@H](O)C(=O)N[C@@](C)(CO)C(=O)O [Conagenin, (2S)N-[(2R,3S,4R)2,4-dihydroxy-3-methyl-pentanoyl]-2-methylserine]",Death,rats; 100 mg/kg i.p.,None
same,"All items tested (general symptoms, urinalysis, blood test, blood biochemical test, autopsy, organ weight, pathological test)",rats; [5],no significant change was observed
same,Blood biochemical test,rats; [5],No marked change
same,General symptoms,rats; [5],No marked change
same,Hematological test,rats; [5],No marked change
same,Pathological test,rats; [5],No marked change
same,Urinalysis,rats; [5],No marked change
same,Development of toxicity,"rats; efficacious dose of 100 mg/kg, rats",no development of toxicity was observed
same,LD50,"[1]; ip, intraperitoneal",> 500 mg/kg
same,LD50,"[1]; sc, subcutaneous",> 500 mg/kg
same,LD50,[1]; intravenous,> 500 mg/kg
same,LD50,[1]; oral,> 500 mg/kg
same,LD50,"[1]; acute toxicity, rats, oral, subcutaneous, intraperitoneal and intravenous",≥ 500 mg/kg
same,Abnormal finding of general symptoms,"Rat; rat, in vivo, 500 mg/kg",no abnormal finding of general symptoms
same,Death,"Rat; rats, single 500 mg/kg",No death was observed
same,LD50,[2],> 500 mg/kg
same,Death,"Mouse; mice, single 500 mg/kg",No death was observed
same,Abnormal finding of general symptoms,"Mouse; mouse, in vivo, 500 mg/kg",no abnormal finding of general symptoms
same,"Number of animals, grade of inflammation Light (1)",[3]; [6],5
same,"Number of animals, grade of inflammation Medium (2)",[3]; [6],3
same,"Number of animals, grade of inflammation Serious (3)",[3]; [6],1
same,"Grade of inflammation, mean ± SD",[3]; control (physiological saline) 2.38 ± 0.67,1.50 ± 0.73
same,Suppressing effect on the inflammatory ulcer compared with the control group,[3]; in words,high suppressing effect
same,Inflammatory change (in words),[4],exactly the same good result
same,Therapeutic effect compared with salazosulfapyridine,[4]; conagenin 50 mg/kg i.v. vs salazosulfapyridine 300 mg/kg p.o.,marked therapeutic effect
same,Wet weight of large intestine,[4],1.572 ± 0.099 g
same,Increase in wet weight of the large intestine (in words),[4]; control (saline) 10%,No increase was observed
same,"Depth of invasion on lamina propria mucosae: number of animals, light",[4]; [7],2
same,"Depth of invasion on lamina propria mucosae: number of animals, no marked change",[4]; [7],5
same,"Depth of invasion on submucosal tissue: number of animals, no marked change",[4]; [7],7
same,"Depth of invasion on tunica muscularis: number of animals, no marked change",[4]; [7],7
same,"Findings of ulceration: number of animals, light",[4]; [7],2
same,"Findings of ulceration: number of animals, no marked change",[4]; [7],5
same,"Inflammatory change: number of animals, light",[4]; [7],1
same,"Inflammatory change: number of animals, no marked change",[4]; [7],6
same,Stage of lesion: number of rats that reached a subacute stage,[4],2 rats
same,Depth of invasion of the ulcer (lamina propria mucosae and submucosal tissue),[4],light
same,Percent change in wet weight against untreated group,[4],100%
Nc1ccc(O)c(C(=O)O)c1 [mesalazine],Generalized amelioration rate,patients,68.8%
same,Incidence rate of the side effect,patients,11.5%
O=C(O)c1cc(/N=N/c2ccc(S(=O)(=O)Nc3ccccn3)cc2)ccc1O [salazosulfapyridine],Wet weight of large intestine,[4],1.641 ± 0.140 g
same,Increase in wet weight of the large intestine,[4]; control (saline) 10%,4%
same,"Depth of invasion on lamina propria mucosae: number of animals, light",[4]; [7],2
same,"Depth of invasion on lamina propria mucosae: number of animals, medium",[4]; [7],2
same,"Depth of invasion on lamina propria mucosae: number of animals, no marked change",[4]; [7],3
same,"Depth of invasion on submucosal tissue: number of animals, light",[4]; [7],2
same,"Depth of invasion on submucosal tissue: number of animals, no marked change",[4]; [7],5
same,"Depth of invasion on tunica muscularis: number of animals, no marked change",[4]; [7],7
same,"Findings of ulceration: number of animals, light",[4]; [7],2
same,"Findings of ulceration: number of animals, medium",[4]; [7],2
same,"Findings of ulceration: number of animals, no marked change",[4]; [7],3
same,"Inflammatory change: number of animals, light",[4]; [7],2
same,"Inflammatory change: number of animals, medium",[4]; [7],1
same,"Inflammatory change: number of animals, no marked change",[4]; [7],4
same,Stage of lesion: number of rats that reached a subacute stage,[4],4 rats
same,Depth of invasion of the ulcer (lamina propria mucosae and submucosal tissue),[4],medium
same,Percent change in wet weight against untreated group,[4],104%
same,Generalized amelioration rate,patients,63.5%
same,Incidence rate of the side effect,patients,28.1%
